We go through six compounds from patent US20220112187A1, “PYRAZOLOPYRIDINE AMINE COMPOUNDS FOR THE TREATMENT OF AUTOIMMUNE DISEASE” (Hoffmann-La Roche Inc., priority 2018, published 2022).

The target in this experiment is T1, human TLR8 (Homo sapiens, UniProt Q9NR97).
T1 sequence (Q9NR97 27-1041): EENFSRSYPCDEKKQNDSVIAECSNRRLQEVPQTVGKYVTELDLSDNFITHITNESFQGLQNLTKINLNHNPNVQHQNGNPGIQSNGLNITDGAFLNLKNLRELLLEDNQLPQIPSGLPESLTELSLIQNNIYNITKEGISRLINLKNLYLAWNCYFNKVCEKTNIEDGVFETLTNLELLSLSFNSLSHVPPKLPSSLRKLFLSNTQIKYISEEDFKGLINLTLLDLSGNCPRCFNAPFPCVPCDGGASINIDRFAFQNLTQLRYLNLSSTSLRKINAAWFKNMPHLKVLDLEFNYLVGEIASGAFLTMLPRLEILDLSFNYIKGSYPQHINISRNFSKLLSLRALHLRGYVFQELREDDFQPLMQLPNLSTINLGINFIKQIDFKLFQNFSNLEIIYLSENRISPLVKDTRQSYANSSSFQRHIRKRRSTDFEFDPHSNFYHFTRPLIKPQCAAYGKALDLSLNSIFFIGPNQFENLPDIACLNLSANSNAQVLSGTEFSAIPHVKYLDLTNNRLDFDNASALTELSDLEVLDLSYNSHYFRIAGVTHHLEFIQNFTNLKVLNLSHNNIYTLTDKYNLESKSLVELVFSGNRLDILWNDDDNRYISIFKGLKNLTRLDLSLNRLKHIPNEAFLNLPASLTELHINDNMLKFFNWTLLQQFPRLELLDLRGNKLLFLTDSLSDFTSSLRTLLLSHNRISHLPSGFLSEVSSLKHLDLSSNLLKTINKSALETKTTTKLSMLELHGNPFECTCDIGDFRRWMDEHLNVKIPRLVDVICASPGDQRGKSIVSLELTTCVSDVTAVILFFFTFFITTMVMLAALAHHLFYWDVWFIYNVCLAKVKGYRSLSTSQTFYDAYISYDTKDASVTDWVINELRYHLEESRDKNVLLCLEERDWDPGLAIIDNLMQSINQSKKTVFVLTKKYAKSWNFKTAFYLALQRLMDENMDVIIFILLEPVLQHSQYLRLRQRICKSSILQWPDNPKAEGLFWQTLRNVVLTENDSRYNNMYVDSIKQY
As to the kind of experiment: HEK293-Blue-hTLR-8 cells assay (SEAP reporter, R848 stimulation). In kind it is cell-based. Particulars: HEK293-Blue-hTLR8 cells, R848 ligand, 20 hrs incubation. The method, boiled down:
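Antagonist mode: HEK293-Blue-hTLR8 cells with serially diluted compound (1% DMSO final) plus R848 (10 μL of 60 uM stock) for 20 hrs at 37° C. Supernatant NF-κB/AP-1-driven SEAP measured with QUANTI-Blue substrate, 2 hrs at 37° C, absorbance 620–655 nm.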
By IC50 is commonly meant the point on the concentration scale where inhibition reaches its midpoint. A low value points to greater potency. For the compound `C[C@@H]1CN(c2ccc(C#N)n3nccc23)C[C@H](CN2CCN(C)CC2)O1` [Example 15, 4-[(2R,6S)-2-methyl-6-[(4-methylpiperazin-1-yl)methyl]morpholin-4-yl]pyrazolo[1,5-a]pyridine-7-carbonitrile], the IC50 stood at 180 nM.

The compound `C[C@@H]1CN(c2ccc(C#N)n3nccc23)C[C@H](CN2C3CCC2CNC3)O1` [Example 43, 4-[(2S,6R)-2-(3,8-diazabicyclo[3.2.1]octan-8-ylmethyl)-6-methyl-morpholin-4-yl]pyrazolo[1,5-a]pyridine-7-carbonitrile] had an IC50 of 31 nM.

As for `C[C@@H]1CN(c2ccc(C#N)n3nccc23)C[C@H](CN2CCN(C(=O)CN)CC2)O1` [Example 14, 4-[(2S,6R)-2-[[4-(2-aminoacetyl)piperazin-1-yl]methyl]-6-methyl-morpholin-4-yl]pyrazolo[1,5-a]pyridine-7-carbonitrile], the IC50 was 380 nM.

In turn, `C[C@@H]1CN(c2ccc(C#N)n3nccc23)C[C@H](CNC2CCN(C)CC2)O1` [Example 7, 4-[(2R,6S)-2-methyl-6-[[(1-methyl-4-piperidyl)amino]methyl]morpholin-4-yl]pyrazolo[1,5-a]pyridine-7-carbonitrile] yielded an IC50 of 320 nM.

The compound `C[C@@H]1CN(c2ccc(C#N)n3nccc23)C[C@H](CN2CCC3(CCNCC3)C2)O1` [Example 18, 4-[(2S,6R)-2-(2,8-diazaspiro[4.5]decan-2-ylmethyl)-6-methyl-morpholin-4-yl]pyrazolo[1,5-a]pyridine-7-carbonitrile] displayed an IC50 of 350 nM.

In turn, `CC1CNCCN1C[C@H]1CN(c2ccc(C#N)n3nccc23)C[C@@H](C)O1` (single isomer, unassigned) [Example 50A] displayed an IC50 of 64 nM.
